Measurements as given in article PMC5218480 (PLoS ONE, 2017).

Test system: MV-4-11 cells
Assay: Gene expression microarray analysis (Affymetrix PrimeView) and GSEA
Format: cell-based, human
Parameters: RFU PODN (11730768_x_at) / Fold change /veh PODN (11730768_x_at) / RFU LINC00158 (11744669_a_at) / Fold change /veh LINC00158 (11744669_a_at) / RFU DUSP10 (11751237_a_at) / Fold change /veh DUSP10 (11751237_a_at) / RFU ID3 (11757404_x_at) / Fold change /veh ID3 (11757404_x_at) / RFU PLEKHG5 (11737974_s_at) / Fold change /veh PLEKHG5 (11737974_s_at) / RFU LRRC4B (11730491_at) / Fold change /veh LRRC4B (11730491_at) / RFU GIMAP4 (11747438_a_at) / Fold change /veh GIMAP4 (11747438_a_at) / RFU KRT8 (11758183_x_at) / Fold change /veh KRT8 (11758183_x_at) / RFU CNN1 (11734310_a_at) / Fold change /veh CNN1 (11734310_a_at) / RFU VPS37D (11726825_at) / Fold change /veh VPS37D (11726825_at) / RFU C10orf10 (11716522_x_at) / Fold change /veh C10orf10 (11716522_x_at) / RFU KIR2DL2 /// KIR2DL4 /// KIR2DL5A /// KIR2DL5B /// KIR2DS1 /// KIR2DS2 /// KIR2DS3 /// KIR2DS4 /// KIR3DL3 /// KIR3DL3 /// KIR3DS1 (11738374_at) / Fold change /veh KIR2DL2 /// KIR2DL4 /// KIR2DL5A /// KIR2DL5B /// KIR2DS1 /// KIR2DS2 /// KIR2DS3 /// KIR2DS4 /// KIR3DL3 /// KIR3DL3 /// KIR3DS1 (11738374_at) / RFU C1QL1 (11718748_at) / Fold change /veh C1QL1 (11718748_at) / RFU TMPRSS4 (11747572_a_at) / Fold change /veh TMPRSS4 (11747572_a_at) / RFU HAMP (11756126_x_at) / Fold change /veh HAMP (11756126_x_at) / RFU RNFT2 (11725882_a_at) / Fold change /veh RNFT2 (11725882_a_at) / RFU NR4A2 (11747474_a_at) / Fold change /veh NR4A2 (11747474_a_at) / RFU ABCC12 (11746883_a_at) / Fold change /veh ABCC12 (11746883_a_at) / RFU TMEM136 (11760407_x_at) / Fold change /veh TMEM136 (11760407_x_at) / RFU CLDN22 /// WWC2 (11732394_at) / Fold change /veh CLDN22 /// WWC2 (11732394_at) / RFU HLA-DPB1 (11760878_x_at) / Fold change /veh HLA-DPB1 (11760878_x_at) / RFU SPINT1 (11716480_a_at) / Fold change /veh SPINT1 (11716480_a_at) / RFU GAP43 (11754022_s_at) / Fold change /veh GAP43 (11754022_s_at) / RFU A4GNT (11735810_at) / Fold change /veh A4GNT (11735810_at) / RFU PRB3 (11715151_x_at) / Fold change /veh PRB3 (11715151_x_at) / RFU TUBB4B (11761932_at) / Fold change /veh TUBB4B (11761932_at) / RFU CAPN14 (11732068_a_at) / Fold change /veh CAPN14 (11732068_a_at) / RFU TMCC2 (11721928_a_at) / Fold change /veh TMCC2 (11721928_a_at) / RFU IRGQ (11745062_a_at) / Fold change /veh IRGQ (11745062_a_at) / RFU FAM174B (11720279_a_at) / Fold change /veh FAM174B (11720279_a_at) / RFU TMPRSS4 (11748680_a_at) / Fold change /veh TMPRSS4 (11748680_a_at) / RFU FAM212B (11763350_a_at) / Fold change /veh FAM212B (11763350_a_at) / RFU PLEKHG5 (11743358_a_at) / Fold change /veh PLEKHG5 (11743358_a_at) / RFU ZSCAN30 (11745921_a_at) / Fold change /veh ZSCAN30 (11745921_a_at) / RFU CMKLR1 (11741424_a_at) / Fold change /veh CMKLR1 (11741424_a_at) / RFU LOC101060620 /// MAPK8IP1 (11723275_at) / Fold change /veh LOC101060620 /// MAPK8IP1 (11723275_at) / RFU SPTSSB (11747773_x_at) / Fold change /veh SPTSSB (11747773_x_at) / RFU PRSS12 (11739890_at) / Fold change /veh PRSS12 (11739890_at) / RFU BIN1 (11741810_x_at) / Fold change /veh BIN1 (11741810_x_at) / RFU WNT11 (11732464_a_at) / Fold change /veh WNT11 (11732464_a_at) / RFU C10orf10 (11716521_a_at) / Fold change /veh C10orf10 (11716521_a_at) / RFU C5orf56 (11738089_at) / Fold change /veh C5orf56 (11738089_at) / RFU CYB561 (11721691_x_at) / Fold change /veh CYB561 (11721691_x_at) / RFU ANKRD19P (11752326_a_at) / Fold change /veh ANKRD19P (11752326_a_at) / RFU OR2T12 /// OR2T33 /// OR2T8 (11738714_s_at) / Fold change /veh OR2T12 /// OR2T33 /// OR2T8 (11738714_s_at) / RFU VCAN (11748164_a_at) / Fold change /veh VCAN (11748164_a_at) / RFU JSRP1 (11732532_at) / Fold change /veh JSRP1 (11732532_at) / RFU KRTAP10-11 (11738290_x_at) / Fold change /veh KRTAP10-11 (11738290_x_at) / RFU MYO3A (11730013_a_at) / Fold change /veh MYO3A (11730013_a_at) / RFU EBF3 (11725865_a_at) / Fold change /veh EBF3 (11725865_a_at) / RFU CAMK2N1 (11719241_x_at) / Fold change /veh CAMK2N1 (11719241_x_at) / RFU C5orf56 (11738088_a_at) / Fold change /veh C5orf56 (11738088_a_at) / RFU OLFML3 (11715873_a_at) / Fold change /veh OLFML3 (11715873_a_at) / RFU LOC100653217 /// NTM (11731650_a_at) / Fold change /veh LOC100653217 /// NTM (11731650_a_at) / RFU MAPK11 (11762145_a_at) / Fold change /veh MAPK11 (11762145_a_at) / RFU FIZ1 (11724087_x_at) / Fold change /veh FIZ1 (11724087_x_at) / RFU OASL (11726364_x_at) / Fold change /veh OASL (11726364_x_at) / RFU SOX15 (11748057_x_at) / Fold change /veh SOX15 (11748057_x_at) / RFU CD79A (11719716_a_at) / Fold change /veh CD79A (11719716_a_at) / RFU HIST1H1D (11736915_at) / Fold change /veh HIST1H1D (11736915_at) / RFU CASKIN2 (11723855_a_at) / Fold change /veh CASKIN2 (11723855_a_at) / RFU LOC730098 (11760151_x_at) / Fold change /veh LOC730098 (11760151_x_at) / RFU OR4N2 (11742367_at) / Fold change /veh OR4N2 (11742367_at) / RFU PRRT2 (11749266_a_at) / Fold change /veh PRRT2 (11749266_a_at) / RFU SNX32 (11753110_a_at) / Fold change /veh SNX32 (11753110_a_at) / RFU CDHR5 (11726645_a_at) / Fold change /veh CDHR5 (11726645_a_at) / RFU RCAN1 (11760418_a_at) / Fold change /veh RCAN1 (11760418_a_at) / RFU FAM167A (11723789_a_at) / Fold change /veh FAM167A (11723789_a_at) / RFU FAM26E (11764081_at) / Fold change /veh FAM26E (11764081_at) / RFU ISYNA1 (11749810_s_at) / Fold change /veh ISYNA1 (11749810_s_at) / RFU ACY1 (11761880_at) / Fold change /veh ACY1 (11761880_at) / RFU 11764098_at / Fold change /veh 11764098_at / RFU SAMD14 (11745864_x_at) / Fold change /veh SAMD14 (11745864_x_at) / RFU NPB (11741838_a_at) / Fold change /veh NPB (11741838_a_at) / RFU TMPRSS6 (11731388_a_at) / Fold change /veh TMPRSS6 (11731388_a_at) / RFU KRTAP10-2 (11738614_at) / Fold change /veh KRTAP10-2 (11738614_at) / RFU ARHGAP8 /// PRR5-ARHGAP8 (11727945_x_at) / Fold change /veh ARHGAP8 /// PRR5-ARHGAP8 (11727945_x_at) / RFU KRTAP5-7 /// NADSYN1 (11734609_at) / Fold change /veh KRTAP5-7 /// NADSYN1 (11734609_at) / RFU RASL12 (11751679_a_at) / Fold change /veh RASL12 (11751679_a_at) / RFU CDKN2B (11736163_a_at) / Fold change /veh CDKN2B (11736163_a_at) / RFU PRF1 (11729649_at) / Fold change /veh PRF1 (11729649_at) / RFU, ZNF638 /// ZNF638-IT1 / Fold change vs veh, ZNF638 /// ZNF638-IT1 / RFU, PANK3 / Fold change vs veh, PANK3 / RFU, SH3YL1 / Fold change vs veh, SH3YL1 / RFU, ZEB2 / Fold change vs veh, ZEB2 / RFU, NRIP1 / Fold change vs veh, NRIP1 / RFU, PTTG1IP / Fold change vs veh, PTTG1IP / RFU, CAPN2 / Fold change vs veh, CAPN2 / RFU, MED14 / Fold change vs veh, MED14 / RFU, SNORA58 / Fold change vs veh, SNORA58 / RFU, C1orf63 / Fold change vs veh, C1orf63 / RFU, LRRFIP1 / Fold change vs veh, LRRFIP1 / RFU, NDUFAF7 / Fold change vs veh, NDUFAF7 / RFU, SLC12A2 / Fold change vs veh, SLC12A2 / RFU, IBTK / Fold change vs veh, IBTK / RFU, ESF1 / Fold change vs veh, ESF1 / Fold change vs veh, TMEM50B / RFU, TAOK1 / Fold change vs veh, TAOK1 / RFU, ACBD3 / Fold change vs veh, ACBD3 / RFU, TMA16 / Fold change vs veh, TMA16 / RFU, RWDD3 / Fold change vs veh, RWDD3 / RFU, BCAT1 / Fold change vs veh, BCAT1 / RFU, EDEM3 / Fold change vs veh, EDEM3 / RFU, TMEM33 / Fold change vs veh, TMEM33 / RFU, WDR75 / Fold change vs veh, WDR75 / RFU, AHCTF1 / Fold change vs veh, AHCTF1 / RFU, TFRC / Fold change vs veh, TFRC / RFU, ZDHHC17 / Fold change vs veh, ZDHHC17 / RFU, NOM1 / Fold change vs veh, NOM1 / RFU, ARL8B / Fold change vs veh, ARL8B / RFU, ZBTB11 / Fold change vs veh, ZBTB11 / RFU, TAMM41 / Fold change vs veh, TAMM41 / RFU, KIAA1704 /// LOC100996395 / Fold change vs veh, KIAA1704 /// LOC100996395 / RFU, ING1 / Fold change vs veh, ING1 / RFU, TRMT61B / Fold change vs veh, TRMT61B / RFU, FUBP3 / Fold change vs veh, FUBP3 / RFU, TP53 / Fold change vs veh, TP53 / RFU, TNKS2 / Fold change vs veh, TNKS2 / RFU, ZFP14 / Fold change vs veh, ZFP14 / RFU, ACTR2 / Fold change vs veh, ACTR2 / RFU, PPP3R1 / Fold change vs veh, PPP3R1 / RFU, PIK3R1 / Fold change vs veh, PIK3R1 / RFU, HNRNPA1 / Fold change vs veh, HNRNPA1 / RFU, RNF170 / Fold change vs veh, RNF170 / RFU, ZNF28 / Fold change vs veh, ZNF28 / RFU, RNGTT / Fold change vs veh, RNGTT / RFU, OGT / Fold change vs veh, OGT / RFU, BRD1 / Fold change vs veh, BRD1 / RFU, MARS / Fold change vs veh, MARS / RFU, ZNF655 / Fold change vs veh, ZNF655 / RFU, FAHD1 / Fold change vs veh, FAHD1 / RFU, BDP1 / Fold change vs veh, BDP1 / RFU, LRRCC1 / Fold change vs veh, LRRCC1 / RFU, ARID1A / Fold change vs veh, ARID1A / RFU, ZNF146 / Fold change vs veh, ZNF146 / RFU, ZNF330 / Fold change vs veh, ZNF330 / RFU, GPN3 / Fold change vs veh, GPN3 / RFU, C9orf123 / Fold change vs veh, C9orf123 / RFU, N4BP2L2 / Fold change vs veh, N4BP2L2 / RFU, ARFIP1 / Fold change vs veh, ARFIP1 / RFU, FAM179B / Fold change vs veh, FAM179B / RFU, BCL10 / Fold change vs veh, BCL10 / RFU, UHRF1BP1L / Fold change vs veh, UHRF1BP1L / RFU, BET1 / Fold change vs veh, BET1 / RFU, CNOT2 / Fold change vs veh, CNOT2 / RFU, ZNF268 / Fold change vs veh, ZNF268 / Fold change vs veh, ZNF507 / RFU, DGCR2 / Fold change vs veh, DGCR2 / RFU, WDSUB1 / Fold change vs veh, WDSUB1 / Fold change vs veh, HSP90B1 /// MIR3652 / RFU, ADSS / Fold change vs veh, ADSS / RFU, GK / Fold change vs veh, GK / RFU, ZNF148 / Fold change vs veh, ZNF148 / RFU, TAF9 / Fold change vs veh, TAF9 / RFU, SLC1A5 / Fold change vs veh, SLC1A5 / RFU, SLMO2 / Fold change vs veh, SLMO2 / RFU, ABCC4 / Fold change vs veh, ABCC4 / RFU, LOC101060439 /// RAP1B / Fold change vs veh, LOC101060439 /// RAP1B / RFU, RFX7 / Fold change vs veh, RFX7 / RFU, GTPBP10 / Fold change vs veh, GTPBP10 / RFU, CNEP1R1 / Fold change vs veh, CNEP1R1 / RFU, BIVM-ERCC5 /// ERCC5 / Fold change vs veh, BIVM-ERCC5 /// ERCC5 / RFU, ILF3 / Fold change vs veh, ILF3 / RFU 11762660_at / Fold change /veh 11762660_at / RFU VCAN (11757783_s_at) / Fold change /veh VCAN (11757783_s_at) / RFU DDX43 (11728927_at) / Fold change /veh DDX43 (11728927_at) / RFU KRT8 (11758188_x_at) / Fold change /veh KRT8 (11758188_x_at) / RFU NKD1 (11759106_at) / Fold change /veh NKD1 (11759106_at) / RFU SRD5A1 (11742802_a_at) / Fold change /veh SRD5A1 (11742802_a_at) / RFU TPSAB1 /// TPSB2 (11721975_s_at) / Fold change /veh TPSAB1 /// TPSB2 (11721975_s_at) / RFU GSTM3 (11746129_a_at) / Fold change /veh GSTM3 (11746129_a_at) / RFU IL23R (11737362_x_at) / Fold change /veh IL23R (11737362_x_at) / RFU TMEM51 (11727254_a_at) / Fold change /veh TMEM51 (11727254_a_at) / RFU PIWIL2 (11732686_x_at) / Fold change /veh PIWIL2 (11732686_x_at) / RFU ORM1 (11744905_x_at) / Fold change /veh ORM1 (11744905_x_at) / RFU CCDC152 (11743942_at) / Fold change /veh CCDC152 (11743942_at) / RFU ECM1 (11717891_a_at) / Fold change /veh ECM1 (11717891_a_at) / RFU IL23R (11748794_a_at) / Fold change /veh IL23R (11748794_a_at) / RFU TNFAIP8L3 (11732012_x_at) / Fold change /veh TNFAIP8L3 (11732012_x_at) / RFU MBOAT4 (11741988_at) / Fold change /veh MBOAT4 (11741988_at) / RFU 11764193_at / Fold change /veh 11764193_at / RFU TMEM53 (11763286_at) / Fold change /veh TMEM53 (11763286_at) / RFU MAGEB2 (11727129_at) / Fold change /veh MAGEB2 (11727129_at) / RFU TMEM200A (11744735_a_at) / Fold change /veh TMEM200A (11744735_a_at) / RFU CCDC152 (11751479_a_at) / Fold change /veh CCDC152 (11751479_a_at) / RFU FAM211A (11726209_a_at) / Fold change /veh FAM211A (11726209_a_at) / RFU RGS16 (11746705_a_at) / Fold change /veh RGS16 (11746705_a_at) / RFU VCAN (11755009_s_at) / Fold change /veh VCAN (11755009_s_at) / RFU RHOB (11743442_s_at) / Fold change /veh RHOB (11743442_s_at) / RFU RGS16 (11720943_a_at) / Fold change /veh RGS16 (11720943_a_at) / RFU RGS16 (11720944_at) / Fold change /veh RGS16 (11720944_at) / RFU, VPS4B / Fold change vs veh, VPS4B / RFU, CREB1 / Fold change vs veh, CREB1 / RFU, DNAJC13 / Fold change vs veh, DNAJC13 / RFU, GNAQ / Fold change vs veh, GNAQ / RFU, CDK5R1 / Fold change vs veh, CDK5R1 / RFU, ZRANB3 / Fold change vs veh, ZRANB3 / RFU, CUL4A / Fold change vs veh, CUL4A / RFU, CCNY / Fold change vs veh, CCNY / RFU, UFL1 / Fold change vs veh, UFL1 / RFU, COG3 / Fold change vs veh, COG3 / RFU, DIAPH2 / Fold change vs veh, DIAPH2 / RFU, SKA2 / Fold change vs veh, SKA2 / RFU, AFF3 / Fold change vs veh, AFF3 / RFU, LMF1 / Fold change vs veh, LMF1 / RFU, IPO11 / Fold change vs veh, IPO11 / RFU, DFFB / Fold change vs veh, DFFB / RFU, FOXP1 / Fold change vs veh, FOXP1 / RFU, CARD8 / Fold change vs veh, CARD8 / RFU, STRN3 / Fold change vs veh, STRN3 / RFU, ADK / Fold change vs veh, ADK / RFU, RASSF2 / Fold change vs veh, RASSF2 / RFU, WIPF1 / Fold change vs veh, WIPF1 / RFU, LARP1B / Fold change vs veh, LARP1B / RFU, RASA1 / Fold change vs veh, RASA1 / RFU, RB1 / Fold change vs veh, RB1 / RFU, PPFIA1 / Fold change vs veh, PPFIA1 / RFU, MAT2A / Fold change vs veh, MAT2A / RFU, CCT5 / Fold change vs veh, CCT5 / RFU, WDR92 / Fold change vs veh, WDR92 / RFU, CUX1 / Fold change vs veh, CUX1 / RFU, TTC7A / Fold change vs veh, TTC7A / RFU, TMEM135 / Fold change vs veh, TMEM135 / RFU, DEPTOR / Fold change vs veh, DEPTOR / RFU, CPM / Fold change vs veh, CPM / RFU, DNAJB6 / Fold change vs veh, DNAJB6 / RFU, CACNA2D3 / Fold change vs veh, CACNA2D3 / RFU, DTX4 / Fold change vs veh, DTX4 / RFU, TFCP2 / Fold change vs veh, TFCP2 / RFU, GMCL1 /// GMCL1P1 / Fold change vs veh, GMCL1 /// GMCL1P1 / RFU, AEBP2 / Fold change vs veh, AEBP2 / RFU, SNHG1 /// SNORD22 /// SNORD25 /// SNORD26 /// SNORD27 /// SNORD28 /// SNORD29 /// SNORD31 / Fold change vs veh, SNHG1 /// SNORD22 /// SNORD25 /// SNORD26 /// SNORD27 /// SNORD28 /// SNORD29 /// SNORD31 / Fold change (Aza/veh), C12orf56 (ProbeSet 11735607_a_at) / Fold change (ACY-1035/veh), C12orf56 (ProbeSet 11735607_a_at) / Fold change (Aza/veh), FGFR1OP (ProbeSet 11751329_s_at) / Fold change (ACY-1035/veh), FGFR1OP (ProbeSet 11751329_s_at) / Fold change (Aza/veh), VPS36 (ProbeSet 11739960_a_at) / Fold change (ACY-1035/veh), VPS36 (ProbeSet 11739960_a_at) / RFU SYPL1 (11715823_x_at) / Fold change /veh SYPL1 (11715823_x_at) / RFU IGFBP7 (11715501_s_at) / Fold change /veh IGFBP7 (11715501_s_at) / RFU REEP3 (11722064_at) / Fold change /veh REEP3 (11722064_at) / RFU IGLL1 (11728026_x_at) / Fold change /veh IGLL1 (11728026_x_at): dose or concentration left out as unconfirmed
Conditions: ProbeSet 11731093_s_at; LIST B

Compound: Nc1ccc(-c2cccs2)cc1NC(=O)c1ccc2c(c1)cc(C1CC1)n2CCN1CCOCC1 [ACY-1035]
- Fold change vs veh, BRD1: 0.87
